According to ChEMBL document CHEMBL1150318, “Discovery of a novel, orally active himbacine-based thrombin receptor antagonist (SCH 530348) with potent antiplatelet activity” (J Med Chem, 2008):
Activity calls are given as the source filed them. The calls are words filed in the database; no cut-off is given here.

What was measured:
[1] = molecular target: T1, Proteinase-activated receptor 1 (Homo sapiens, UniProt P25116); assay: Displacement of [3H]haTRAP from PAR1 in human platelets
T1 sequence (P25116 whole entry): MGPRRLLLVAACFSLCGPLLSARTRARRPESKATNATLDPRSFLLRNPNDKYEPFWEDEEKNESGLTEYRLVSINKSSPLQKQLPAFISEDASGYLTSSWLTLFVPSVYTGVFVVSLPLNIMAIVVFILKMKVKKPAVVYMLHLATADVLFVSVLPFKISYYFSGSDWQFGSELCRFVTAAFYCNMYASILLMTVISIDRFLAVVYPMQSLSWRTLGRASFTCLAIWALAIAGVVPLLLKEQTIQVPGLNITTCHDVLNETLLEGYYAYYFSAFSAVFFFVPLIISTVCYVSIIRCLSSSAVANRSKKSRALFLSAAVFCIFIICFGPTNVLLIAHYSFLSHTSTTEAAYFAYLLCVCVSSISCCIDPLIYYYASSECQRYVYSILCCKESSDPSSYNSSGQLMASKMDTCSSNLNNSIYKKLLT

Platelet [2] = assay: Ex vivo inhibition of haTRAP-induced platelet aggregation in cynomolgus monkey at 0.1 mg/kg, po after 24 hrs by impedance aggregometry; format: functional; conditions: Macaca fascicularis
[3] = AUC (0 to 24 hrs) in cynomolgus monkey at 0.1 mg/kg, po after 24 hrs; format: ADME, organism-based, Macaca fascicularis; design: time < 24 hr, dose 0.1 mg/kg, route oral; conditions: plasma
[4] = Cmax in cynomolgus monkey at 0.1 mg/kg, po after 24 hrs; format: ADME, organism-based, Macaca fascicularis; design: dose 0.1 mg/kg, route oral; conditions: in vivo
Platelet [5] = assay: Ex vivo inhibition of haTRAP-induced platelet aggregation in cynomolgus monkey at 1 mg/kg, po after 6 hrs by impedance aggregometry; format: functional; conditions: Macaca fascicularis
Platelet [6] = assay: Ex vivo inhibition of haTRAP-induced platelet aggregation in cynomolgus monkey at 0.5 mg/kg, po by impedance aggregometry; format: functional, organism-based; design: dose 0.5 mg/kg; conditions: Macaca fascicularis
Platelet [7] = assay: Ex vivo inhibition of haTRAP-induced platelet aggregation in cynomolgus monkey at 1 mg/kg, po after 24 hrs by impedance aggregometry; format: functional; conditions: Macaca fascicularis
[8] = AUC (0 to 24 hrs) in cynomolgus monkey at 1 mg/kg, po after 24 hrs; format: ADME, organism-based, Macaca fascicularis; design: time < 24 hr, dose 1 mg/kg, route oral; conditions: plasma
[9] = Cmax in cynomolgus monkey at 1 mg/kg, po after 24 hrs; format: ADME, organism-based, Macaca fascicularis; design: dose 1 mg/kg, route oral; conditions: in vivo

SMILES	Ki [1] [nM]	other results
C[C@H]1OC(=O)[C@@H]2C[C@@H]3C[C@H](NS(C)(=O)=O)CC[C@H]3[C@H](/C=C/c3ccc(-c4cccc(F)c4)cn3)[C@H]12	11	inhibition in vivo at 1 mg/kg (Platelet [5]): < 40%
CCOC(=O)N(C)[C@@H]1CC[C@@H]2[C@@H](C1)C[C@H]1C(=O)O[C@H](C)[C@H]1[C@H]2/C=C/c1ccc(-c2cccc(F)c2)cn1	4.1	Activity (Platelet [6]): inactive
C[C@H]1OC(=O)[C@@H]2C[C@@H]3C[C@H](N)CC[C@H]3[C@H](/C=C/c3ccc(-c4cccc(F)c4)cn3)[C@H]12	20	inhibition in vivo at 1 mg/kg (Platelet [5]): < 40%
CC(=O)N[C@@H]1CC[C@@H]2[C@@H](C1)C[C@H]1C(=O)O[C@H](C)[C@H]1[C@H]2/C=C/c1ccc(-c2cccc(C(F)(F)F)c2)cn1	30	
CCOC(=O)N(C)[C@@H]1CC[C@@H]2[C@@H](C1)C[C@H]1C(=O)O[C@H](C)[C@H]1[C@H]2/C=C/c1ccc(-c2cccc(C(F)(F)F)c2)cn1	3.7	
CNC(=O)N[C@@H]1CC[C@@H]2[C@@H](C1)C[C@H]1C(=O)O[C@H](C)[C@H]1[C@H]2/C=C/c1ccc(-c2cccc(F)c2)cn1	4.4	inhibition in vivo at 1 mg/kg (Platelet [7]): 55%; AUC(0-t) at 24 h [8]: 2.63 µM·h; Cmax [9]: 260 nM
CCNC(=O)N[C@@H]1CC[C@@H]2[C@@H](C1)C[C@H]1C(=O)O[C@H](C)[C@H]1[C@H]2/C=C/c1ccc(-c2cccc(F)c2)cn1	4.8	
CCCN(C(=O)OCC)[C@@H]1CC[C@@H]2[C@@H](C1)C[C@H]1C(=O)O[C@H](C)[C@H]1[C@H]2/C=C/c1ccc(-c2cccc(F)c2)cn1	89	
C[C@H]1OC(=O)[C@@H]2C[C@@H]3C[C@H](NS(C)(=O)=O)CC[C@H]3[C@H](/C=C/c3ccc(-c4cccc(C(F)(F)F)c4)cn3)[C@H]12	10	
C[C@H]1OC(=O)[C@@H]2C[C@@H]3C[C@H](NC(=O)C4CC4)CC[C@H]3[C@H](/C=C/c3ccc(-c4cccc(F)c4)cn3)[C@H]12	6.5	inhibition in vivo at 1 mg/kg (Platelet [7]): 100%; AUC(0-t) at 24 h [8]: 5.53 µM·h; Cmax [9]: 390 nM
C[C@H]1OC(=O)[C@@H]2C[C@@H]3C[C@H](NC(=O)OC(C)(C)C)CC[C@H]3[C@H](/C=C/c3ccc(-c4cccc(C#N)c4)cn3)[C@H]12	44	
CC(=O)N[C@@H]1CC[C@@H]2[C@@H](C1)C[C@H]1C(=O)O[C@H](C)[C@H]1[C@H]2/C=C/c1ccc(-c2cccc(F)c2)cn1	6.2	
CCOC(=O)N[C@@H]1CC[C@@H]2[C@@H](C1)C[C@H]1C(=O)O[C@H](C)[C@H]1[C@H]2/C=C/c1ccc(-c2cc(F)cc(F)c2)cn1	5.9	

Further lines, with some results ahead:

Ki [1] [nM]	SMILES	other results
11	CCOC(=O)N[C@@H]1CC[C@@H]2[C@@H](C1)C[C@H]1C(=O)O[C@H](C)[C@H]1[C@H]2/C=C/c1ccc(-c2ccccc2F)cn1	inhibition in vivo at 0.1 mg/kg (Platelet [2]): 80%; AUC(0-t) at 24 h [3]: 0.2 µM·h; Cmax [4]: 24 nM
367	CCOC(=O)N[C@@H]1CC[C@@H]2[C@@H](C1)C[C@H]1C(=O)O[C@H](C)[C@H]1[C@H]2/C=C/c1ccc(-c2cccc(C(N)=O)c2)cn1	
11	CCOC(=O)N[C@@H]1CC[C@@H]2[C@@H](C1)C[C@H]1C(=O)O[C@H](C)[C@H]1[C@H]2/C=C/c1ccc(-c2cccc(Cl)c2)cn1	
6.4	CCC(=O)N[C@@H]1CC[C@@H]2[C@@H](C1)C[C@H]1C(=O)O[C@H](C)[C@H]1[C@H]2/C=C/c1ccc(-c2cccc(F)c2)cn1	inhibition in vivo at 1 mg/kg (Platelet [7]): 100%; AUC(0-t) at 24 h [8]: 11.4 µM·h; Cmax [9]: 750 nM
11	CCOC(=O)N[C@@H]1CC[C@@H]2[C@@H](C1)C[C@H]1C(=O)O[C@H](C)[C@H]1[C@H]2/C=C/c1ccc(-c2cccc(C)c2F)cn1	inhibition in vivo at 1 mg/kg (Platelet [7]): 100%; AUC(0-t) at 24 h [8]: 0.13 µM·h; Cmax [9]: 20 nM
5.9	CCOC(=O)N[C@@H]1CC[C@@H]2[C@@H](C1)C[C@H]1C(=O)O[C@H](C)[C@H]1[C@H]2/C=C/c1ccc(-c2cccc(OC)c2)cn1	
17	CCCOC(=O)N[C@@H]1CC[C@@H]2[C@@H](C1)C[C@H]1C(=O)O[C@H](C)[C@H]1[C@H]2/C=C/c1ccc(-c2cccc(F)c2)cn1	
1.8	CCOC(=O)N[C@@H]1CC[C@@H]2[C@@H](C1)C[C@H]1C(=O)O[C@H](C)[C@H]1[C@H]2/C=C/c1ccc(-c2cccc(C#N)c2)cn1	inhibition in vivo at 0.1 mg/kg (Platelet [2]): 80%; AUC(0-t) at 24 h [3]: 2.08 µM·h; Cmax [4]: 200 nM
6.1	COC(=O)N[C@@H]1CC[C@@H]2[C@@H](C1)C[C@H]1C(=O)O[C@H](C)[C@H]1[C@H]2/C=C/c1ccc(-c2cccc(F)c2)cn1	
